Experiments:
DOR [1] = target: T1, DOR (Homo sapiens, UniProt P41143); assay: Radioligand binding at DOR
5HT2B serotonin receptor = 5HT2B serotonin receptor (Homo sapiens, UniProt P41595); assay: PDSP off-target binding, 5HT2B
[2] = target: human α2C adrenergic receptor (Homo sapiens, UniProt P18825); assay: PDSP off-target binding, α2C adrenergic
rat kidney TSPO = rat kidney TSPO (Rattus norvegicus, UniProt P16257); assay: Radioligand binding at TSPO; settings: TSPO, Ki, rat TSPO; [3H]PK11195
hDAT = hDAT (Homo sapiens, UniProt Q01959); assay: Radioligand binding at DAT; settings: 10 μM; [3H]WIN35428; negative = enhanced radioligand binding
β3 adrenergic receptor = β3 adrenergic receptor (Homo sapiens, UniProt P13945); assay: PDSP off-target binding, β3 adrenergic
rat σ2 receptor = target: T2, rat σ2 receptor (Rattus norvegicus, UniProt Q5U3Y7); assay: PDSP binding, σ2 receptor
T2 sequence (Q5U3Y7 1-176): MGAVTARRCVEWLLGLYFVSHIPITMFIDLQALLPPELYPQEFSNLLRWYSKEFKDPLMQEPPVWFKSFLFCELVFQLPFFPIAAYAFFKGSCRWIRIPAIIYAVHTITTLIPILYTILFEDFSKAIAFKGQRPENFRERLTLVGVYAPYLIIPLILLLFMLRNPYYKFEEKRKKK

mA3AR = target: T3, mA3AR (Mus musculus, UniProt Q61618); settings: ref Tosh et al. 2,3,6,34,35,37; cited from earlier work
T3 sequence (Q61618 1-319): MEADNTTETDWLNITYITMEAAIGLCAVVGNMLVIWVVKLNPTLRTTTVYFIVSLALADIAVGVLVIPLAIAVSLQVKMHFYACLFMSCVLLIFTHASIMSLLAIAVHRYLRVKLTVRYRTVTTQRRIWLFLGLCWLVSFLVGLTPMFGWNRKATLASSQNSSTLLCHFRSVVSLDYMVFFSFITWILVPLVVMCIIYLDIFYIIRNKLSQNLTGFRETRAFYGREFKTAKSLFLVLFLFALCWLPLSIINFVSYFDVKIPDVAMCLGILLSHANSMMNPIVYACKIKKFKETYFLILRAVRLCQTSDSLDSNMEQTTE

5HT2C serotonin receptor = target: T4, 5HT2C serotonin receptor (Homo sapiens, UniProt P28335); assay: PDSP off-target binding, 5HT2C
T4 sequence (P28335 33-458): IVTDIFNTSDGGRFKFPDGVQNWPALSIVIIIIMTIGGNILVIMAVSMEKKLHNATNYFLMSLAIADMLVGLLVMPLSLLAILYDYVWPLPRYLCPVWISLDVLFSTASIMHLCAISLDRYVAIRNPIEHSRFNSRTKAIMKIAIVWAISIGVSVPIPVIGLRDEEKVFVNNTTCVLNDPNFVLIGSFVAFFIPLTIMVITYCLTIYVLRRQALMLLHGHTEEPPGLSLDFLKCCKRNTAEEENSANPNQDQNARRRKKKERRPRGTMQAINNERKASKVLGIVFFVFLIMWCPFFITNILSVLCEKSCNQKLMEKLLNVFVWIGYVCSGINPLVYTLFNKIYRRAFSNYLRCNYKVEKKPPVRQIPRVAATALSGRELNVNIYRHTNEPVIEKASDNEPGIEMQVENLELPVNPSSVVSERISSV

MOR [3] = target: T5, MOR (Homo sapiens, UniProt P35372); assay: biochemical; assay type: binding; settings: for MOR, inhibition of radioligand binding at 10 μM (class): Table 2
KOR [4] = target: T6, KOR (Homo sapiens, UniProt P41145); assay: biochemical; assay type: binding; settings: for Ki: KOR, [3H]U69593, mean ± SEM, N = 2–4
mA1AR = target: T7, mA1AR (Mus musculus, UniProt Q60612); assay: mA1AR binding; settings: read-out: mA1AR binding, % inhibition at 10 μM
T7 sequence (Q60612 1-326): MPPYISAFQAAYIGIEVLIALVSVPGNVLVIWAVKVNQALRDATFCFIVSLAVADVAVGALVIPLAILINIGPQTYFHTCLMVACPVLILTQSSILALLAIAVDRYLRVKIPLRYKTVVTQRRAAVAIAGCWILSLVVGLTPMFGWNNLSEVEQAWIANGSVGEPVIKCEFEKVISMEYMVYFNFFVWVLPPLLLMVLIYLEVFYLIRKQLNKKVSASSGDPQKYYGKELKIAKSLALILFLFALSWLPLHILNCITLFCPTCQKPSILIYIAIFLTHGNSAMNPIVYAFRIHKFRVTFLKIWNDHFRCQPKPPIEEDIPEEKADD

DOR [5] = target: T1, DOR; assay: β-arrestin-recruitment TANGO assay at DOR; assay type: cell-based; settings: 10 μM
KOR [6] = target: T6, KOR; assay: β-arrestin-recruitment TANGO assay at KOR; assay type: cell-based; settings: 10 μM; vs naloxone 121 = 100% inhibition; agonist 109 (3 nM)
MOR [7] = target: T5, MOR; assay: β-arrestin-recruitment TANGO assay at MOR; assay type: cell-based; settings: 10 μM
mA2AAR = mA2AAR (Mus musculus, UniProt Q60613); assay: mA2AAR binding; settings: read-out: mA2AAR binding, % inhibition at 10 μM
hA3AR = target: T8, hA3AR (Homo sapiens, UniProt P0DMS8); assay: A3AR binding
T8 sequence (P0DMS8 1-318): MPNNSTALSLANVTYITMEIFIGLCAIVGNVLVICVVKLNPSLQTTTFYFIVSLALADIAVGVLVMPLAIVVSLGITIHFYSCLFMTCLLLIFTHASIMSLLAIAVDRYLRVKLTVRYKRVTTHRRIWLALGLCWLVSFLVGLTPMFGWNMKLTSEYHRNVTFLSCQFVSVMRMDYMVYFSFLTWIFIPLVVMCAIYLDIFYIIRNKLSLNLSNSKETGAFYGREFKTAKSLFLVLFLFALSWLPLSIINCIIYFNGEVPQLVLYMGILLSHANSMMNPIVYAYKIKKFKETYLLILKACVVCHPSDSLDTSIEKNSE

5HT2A serotonin receptor = 5HT2A serotonin receptor (Homo sapiens, UniProt P28223); assay: PDSP off-target binding, 5HT2A
muscarinic M5 receptor = muscarinic M5 receptor (Homo sapiens, UniProt P08912); assay: PDSP off-target binding, muscarinic M5
KOR [8] = target: T6, KOR; assay type: cell-based
KOR [9] = target: T6, KOR; assay: cell-based; assay type: cell-based
hA1AR = target: T9, hA1AR (Homo sapiens, UniProt P30542); assay: hA1AR binding
T9 sequence (P30542 1-326): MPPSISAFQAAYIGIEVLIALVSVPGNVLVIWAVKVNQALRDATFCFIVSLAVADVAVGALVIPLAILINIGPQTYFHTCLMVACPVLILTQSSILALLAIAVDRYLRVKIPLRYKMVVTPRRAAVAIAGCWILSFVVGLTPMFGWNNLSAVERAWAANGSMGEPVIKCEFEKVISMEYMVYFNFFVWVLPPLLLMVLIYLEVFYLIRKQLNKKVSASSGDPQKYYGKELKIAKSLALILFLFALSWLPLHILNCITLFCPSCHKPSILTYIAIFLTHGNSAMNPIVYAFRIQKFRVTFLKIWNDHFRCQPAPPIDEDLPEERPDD

hA2AAR = hA2AAR (Homo sapiens, UniProt P29274); assay: hA2AAR binding; settings: read-out: binding inhibition at hA2AAR (% at 10 μM)
hSERT = hSERT (Homo sapiens, UniProt P31645); assay: biochemical; assay type: binding
hSERT, sequence (P31645 whole entry): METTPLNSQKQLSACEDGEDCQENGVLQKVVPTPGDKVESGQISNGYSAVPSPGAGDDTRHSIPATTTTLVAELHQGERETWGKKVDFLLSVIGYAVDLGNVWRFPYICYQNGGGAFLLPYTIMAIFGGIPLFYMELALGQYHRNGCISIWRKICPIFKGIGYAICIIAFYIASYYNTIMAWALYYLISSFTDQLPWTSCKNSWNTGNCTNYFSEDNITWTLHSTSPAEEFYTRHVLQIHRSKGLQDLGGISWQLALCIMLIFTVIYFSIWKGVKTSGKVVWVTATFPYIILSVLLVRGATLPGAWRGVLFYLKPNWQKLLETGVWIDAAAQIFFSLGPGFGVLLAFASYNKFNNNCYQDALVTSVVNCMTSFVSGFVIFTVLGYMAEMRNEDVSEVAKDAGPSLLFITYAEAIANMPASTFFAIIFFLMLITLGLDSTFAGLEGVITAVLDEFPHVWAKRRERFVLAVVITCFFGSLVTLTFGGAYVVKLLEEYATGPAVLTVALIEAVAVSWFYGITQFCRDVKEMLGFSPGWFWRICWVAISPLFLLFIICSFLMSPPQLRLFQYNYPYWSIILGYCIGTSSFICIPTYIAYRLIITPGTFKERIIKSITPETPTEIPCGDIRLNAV

T1 sequence (P41143 whole entry): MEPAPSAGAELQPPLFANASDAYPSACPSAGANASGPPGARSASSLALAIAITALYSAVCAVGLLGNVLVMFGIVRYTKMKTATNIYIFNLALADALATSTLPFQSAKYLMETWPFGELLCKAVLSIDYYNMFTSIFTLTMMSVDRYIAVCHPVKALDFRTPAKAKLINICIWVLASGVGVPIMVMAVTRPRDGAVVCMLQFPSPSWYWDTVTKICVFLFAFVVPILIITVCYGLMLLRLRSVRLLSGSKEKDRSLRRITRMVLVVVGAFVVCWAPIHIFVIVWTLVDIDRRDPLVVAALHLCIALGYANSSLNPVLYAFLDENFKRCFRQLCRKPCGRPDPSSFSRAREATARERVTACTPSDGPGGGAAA
hDAT, sequence (Q01959 whole entry): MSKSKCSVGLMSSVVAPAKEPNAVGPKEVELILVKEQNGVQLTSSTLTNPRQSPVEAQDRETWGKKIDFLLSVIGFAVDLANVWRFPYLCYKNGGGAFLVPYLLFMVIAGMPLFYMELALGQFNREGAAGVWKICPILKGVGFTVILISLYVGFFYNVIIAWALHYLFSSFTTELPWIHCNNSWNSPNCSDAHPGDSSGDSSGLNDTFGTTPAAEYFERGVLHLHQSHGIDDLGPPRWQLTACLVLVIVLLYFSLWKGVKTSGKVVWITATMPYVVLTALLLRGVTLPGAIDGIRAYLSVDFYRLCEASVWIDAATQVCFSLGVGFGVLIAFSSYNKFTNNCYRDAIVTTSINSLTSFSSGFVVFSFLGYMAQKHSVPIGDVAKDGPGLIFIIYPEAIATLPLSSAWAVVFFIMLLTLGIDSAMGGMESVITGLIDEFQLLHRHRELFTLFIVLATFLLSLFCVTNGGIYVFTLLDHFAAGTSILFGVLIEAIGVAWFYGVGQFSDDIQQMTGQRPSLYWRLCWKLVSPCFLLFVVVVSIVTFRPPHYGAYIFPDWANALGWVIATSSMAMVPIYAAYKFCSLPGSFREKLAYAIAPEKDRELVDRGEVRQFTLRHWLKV
rat kidney TSPO, sequence (P16257 whole entry): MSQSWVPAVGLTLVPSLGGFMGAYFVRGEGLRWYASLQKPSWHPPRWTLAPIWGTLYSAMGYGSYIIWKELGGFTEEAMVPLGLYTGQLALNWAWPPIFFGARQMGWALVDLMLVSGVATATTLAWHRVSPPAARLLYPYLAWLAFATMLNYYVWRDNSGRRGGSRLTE
T5 sequence (P35372 whole entry): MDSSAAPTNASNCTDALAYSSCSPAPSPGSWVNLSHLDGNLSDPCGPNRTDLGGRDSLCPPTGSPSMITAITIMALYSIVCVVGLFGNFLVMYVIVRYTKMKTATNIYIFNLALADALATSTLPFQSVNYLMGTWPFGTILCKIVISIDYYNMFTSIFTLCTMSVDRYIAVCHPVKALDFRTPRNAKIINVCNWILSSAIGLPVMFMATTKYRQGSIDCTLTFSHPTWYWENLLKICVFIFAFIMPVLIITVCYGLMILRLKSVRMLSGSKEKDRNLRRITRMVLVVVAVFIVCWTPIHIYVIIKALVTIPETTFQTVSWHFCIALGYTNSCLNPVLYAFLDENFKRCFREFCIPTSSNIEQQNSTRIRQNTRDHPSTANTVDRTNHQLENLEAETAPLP
T6 sequence (P41145 whole entry): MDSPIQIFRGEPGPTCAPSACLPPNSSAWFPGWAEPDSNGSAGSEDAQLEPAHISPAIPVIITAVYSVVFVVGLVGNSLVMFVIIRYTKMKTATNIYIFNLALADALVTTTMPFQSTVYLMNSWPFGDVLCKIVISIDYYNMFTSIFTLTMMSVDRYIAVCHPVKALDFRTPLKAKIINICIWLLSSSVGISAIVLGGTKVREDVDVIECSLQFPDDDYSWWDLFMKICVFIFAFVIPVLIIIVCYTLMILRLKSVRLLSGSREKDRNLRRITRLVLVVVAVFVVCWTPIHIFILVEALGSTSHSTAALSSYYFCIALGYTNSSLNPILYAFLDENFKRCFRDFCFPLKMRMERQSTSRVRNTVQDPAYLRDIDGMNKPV
human α2C adrenergic receptor, sequence (P18825 whole entry): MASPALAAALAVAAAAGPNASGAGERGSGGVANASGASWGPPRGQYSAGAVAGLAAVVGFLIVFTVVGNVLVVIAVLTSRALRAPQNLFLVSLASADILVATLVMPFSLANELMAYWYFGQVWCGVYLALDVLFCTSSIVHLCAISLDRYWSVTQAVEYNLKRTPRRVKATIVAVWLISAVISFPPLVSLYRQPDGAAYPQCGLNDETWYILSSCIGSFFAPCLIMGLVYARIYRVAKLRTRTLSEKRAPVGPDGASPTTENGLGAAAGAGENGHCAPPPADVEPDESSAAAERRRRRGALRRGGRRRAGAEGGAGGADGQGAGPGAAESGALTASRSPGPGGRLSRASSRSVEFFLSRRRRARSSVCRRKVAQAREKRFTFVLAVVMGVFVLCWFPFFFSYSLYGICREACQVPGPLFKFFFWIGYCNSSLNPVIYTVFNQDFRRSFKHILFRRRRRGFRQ
5HT2B serotonin receptor, sequence (P41595 whole entry): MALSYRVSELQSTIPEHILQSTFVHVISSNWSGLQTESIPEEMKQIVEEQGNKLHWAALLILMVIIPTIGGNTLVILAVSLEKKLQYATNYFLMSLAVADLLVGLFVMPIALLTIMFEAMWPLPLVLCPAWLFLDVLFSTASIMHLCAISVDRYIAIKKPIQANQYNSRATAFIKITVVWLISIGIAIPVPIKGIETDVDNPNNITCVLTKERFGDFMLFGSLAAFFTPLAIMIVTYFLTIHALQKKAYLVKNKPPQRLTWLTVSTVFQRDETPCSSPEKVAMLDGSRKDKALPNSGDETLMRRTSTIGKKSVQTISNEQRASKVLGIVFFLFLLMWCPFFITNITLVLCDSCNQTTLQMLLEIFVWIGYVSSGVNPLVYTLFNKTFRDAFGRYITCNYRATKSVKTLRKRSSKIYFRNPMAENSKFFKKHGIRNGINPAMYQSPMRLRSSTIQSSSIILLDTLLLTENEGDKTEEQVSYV
5HT2A serotonin receptor, sequence (P28223 whole entry): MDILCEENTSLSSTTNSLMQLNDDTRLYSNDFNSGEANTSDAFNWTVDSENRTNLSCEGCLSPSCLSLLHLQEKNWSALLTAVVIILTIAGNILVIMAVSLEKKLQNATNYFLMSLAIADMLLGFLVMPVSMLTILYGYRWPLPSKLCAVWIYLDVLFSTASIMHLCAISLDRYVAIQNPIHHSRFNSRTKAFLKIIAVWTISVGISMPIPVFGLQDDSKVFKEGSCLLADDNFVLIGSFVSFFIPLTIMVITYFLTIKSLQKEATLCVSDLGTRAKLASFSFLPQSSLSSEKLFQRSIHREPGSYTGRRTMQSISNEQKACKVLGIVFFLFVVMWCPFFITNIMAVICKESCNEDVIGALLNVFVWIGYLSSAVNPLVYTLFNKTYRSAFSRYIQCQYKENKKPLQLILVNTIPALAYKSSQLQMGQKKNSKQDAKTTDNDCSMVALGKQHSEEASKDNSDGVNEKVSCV
mA2AAR, sequence (Q60613 whole entry): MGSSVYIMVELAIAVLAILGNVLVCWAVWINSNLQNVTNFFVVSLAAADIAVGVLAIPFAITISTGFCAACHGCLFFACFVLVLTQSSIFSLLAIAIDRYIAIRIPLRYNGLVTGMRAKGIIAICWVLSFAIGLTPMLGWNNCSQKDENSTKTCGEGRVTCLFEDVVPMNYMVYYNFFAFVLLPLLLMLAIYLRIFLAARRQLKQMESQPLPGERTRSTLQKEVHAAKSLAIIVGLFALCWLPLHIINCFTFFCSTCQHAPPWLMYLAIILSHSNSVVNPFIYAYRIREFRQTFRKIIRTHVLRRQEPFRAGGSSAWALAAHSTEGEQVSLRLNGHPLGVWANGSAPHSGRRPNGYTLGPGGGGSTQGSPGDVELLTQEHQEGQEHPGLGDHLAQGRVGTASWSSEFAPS
muscarinic M5 receptor, sequence (P08912 whole entry): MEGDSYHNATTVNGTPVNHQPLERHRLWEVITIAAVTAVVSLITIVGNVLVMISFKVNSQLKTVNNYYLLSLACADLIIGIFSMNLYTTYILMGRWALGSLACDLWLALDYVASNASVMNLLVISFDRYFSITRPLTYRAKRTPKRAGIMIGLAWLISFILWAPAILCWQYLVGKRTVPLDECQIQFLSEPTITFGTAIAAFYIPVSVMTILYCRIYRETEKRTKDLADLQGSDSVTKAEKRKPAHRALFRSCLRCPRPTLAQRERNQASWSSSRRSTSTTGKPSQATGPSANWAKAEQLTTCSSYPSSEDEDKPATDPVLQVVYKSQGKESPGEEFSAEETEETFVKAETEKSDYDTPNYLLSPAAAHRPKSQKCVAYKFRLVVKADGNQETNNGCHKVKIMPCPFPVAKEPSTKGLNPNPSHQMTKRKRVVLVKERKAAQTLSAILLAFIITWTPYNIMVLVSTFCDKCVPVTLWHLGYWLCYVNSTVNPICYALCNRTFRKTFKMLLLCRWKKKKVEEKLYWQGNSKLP

| SMILES | Ki (5HT2B serotonin receptor) | Ki [2] | Ki (rat kidney TSPO) | DAT, inhibition, % of control at 10 μM (hDAT) | A3AR binding, % at 10 μM (m) (mA3AR) | Ki (5HT2C serotonin receptor) | DOR, inhibition of radioligand binding at 10 μM (class) (DOR [1]; Table 2) | MOR, inhibition of radioligand binding at 10 μM (class) (MOR [3]) | Ki (KOR [4]) | Ki (hA3AR) | Ki (DOR [1]) | Ki (MOR [3]) | further results |
| --- | --- | --- | --- | --- | --- | --- | --- | --- | --- | --- | --- | --- | --- |
| CNC(=O)[C@@]12C[C@@H]1[C@@H](n1cnc3c(NCc4cccc(Cl)c4)nc(C#Cc4ccccc4)nc31)[C@H](O)[C@@H]2O [compound 6] | 2960 ± 600 nM | 6300 nM | 2650 ± 290 nM | 7% |  |  |  |  |  |  |  |  | DOR, inhibition of radioligand binding at 10 μM (class) (DOR [1]; Table 1): ^e (30–50% inhibition of radioligand binding at 10 μM); Ki (β3 adrenergic receptor): 2600 nM; Ki (rat σ2 receptor): 1540 nM |
| CNc1nc(C#Cc2ccc(Br)s2)nc2c1ncn2[C@H]1[C@H](O)[C@H](O)[C@]2(C(=O)OC)C[C@H]12 [compound 23] |  |  | 8120 ± 670 nM | –370% | 57 ± 1% | 2330 nM | ^d (<30% inhibition of radioligand binding at 10 μM) | ^c (30–50% inhibition of radioligand binding at 10 μM) | 2090 ± 330 nM |  |  |  |  |
| CCOC(=O)[C@@]12C[C@@H]1[C@@H](n1cnc3c(NC)nc(C#Cc4ccc(Cl)s4)nc31)[C@H](O)[C@@H]2O [compound 24] |  |  | 1290 ± 70 nM |  | 45 ± 5% |  | ^c (30–50% inhibition of radioligand binding at 10 μM) | ^d (<30% inhibition of radioligand binding at 10 μM) | 396 ± 29 nM |  |  |  | inhibition at 10 µM (mA1AR): 43%; DOR Antag (%) (DOR [5]; vs naloxone 121 = 100% inhibition): 35.3%; DOR Ag (%) (DOR [5]; vs standard agonist = 100%): 0.7%; KOR Antag (%) (KOR [6]): 58.2%; MOR Antag (%) (MOR [7]; vs naloxone 121 = 100% inhibition, agonist 99 (300 nM)): –13.4%; MOR Ag (%) (MOR [7]; vs standard agonist = 100%): 0.3%; inhibition at 10 µM (mA2AAR): 10% |
| CCOC(=O)[C@@]12C[C@@H]1[C@@H](n1cnc3c(NC)nc(C#Cc4ccc(Cl)s4)cc31)[C@H](O)[C@@H]2O [compound 27] | 1780 ± 280 nM |  | 3390 ± 640 nM | –354% |  | 400 nM | ^d (<30% inhibition of radioligand binding at 10 μM) | ^d (<30% inhibition of radioligand binding at 10 μM) |  | 47.3 ± 18.9 nM |  |  | Ki (5HT2A serotonin receptor): 1300 ± 290 nM; KOR binding inhibition at 10 μM (KOR [4]; 10 μM): < 10%; KOR, inhibition of radioligand binding at 10 μM (class) (KOR [4]; Table 2, 10 μM): ^d (<30% inhibition of radioligand binding at 10 μM); Ki (muscarinic M5 receptor): 3850 nM |
| CCOC(=O)[C@@]12C[C@@H]1[C@@H](n1ccc3c(NCCc4ccccc4)nc(C#Cc4ccccc4)nc31)[C@H](O)[C@@H]2O [compound 43, Ethyl(1S,2R,3S,4R,5S)-2,3-dihydroxy-4-(4-(phenethylamino)-2-(phenylethynyl)-7H-pyrrolo[2,3-d]pyrimidin-7-yl)bicyclo[3.1.0]hexane-1-carboxylate] |  | 510 nM | 480 ± 200 nM | 21% |  |  |  |  | 207 ± 21 nM | 483 ± 62 nM | 627 ± 178 nM | 1770 ± 540 nM | inhibition of agonist 98 in βarrestin2 assay (KOR [8]; 1 μM 98): did not inhibit; βarrestin2 recruitment, agonist effect relative to full agonist 98 (KOR [8]; agonist mode, highest concentrations): 30 ± 4.6%; inhibition of agonist 98 in cAMP assay (KOR [9]; 100 nM 98): did not inhibit; inhibition at 30 µM (KOR [9]; CHO, read-out: inhibition of cAMP accumulation, % inhibition at 30 μM): 23%; inhibition at 10 µM (hA1AR; read-out: binding inhibition at hA1AR (% at 10 μM)): 26%; inhibition at 10 µM (hA2AAR): < 10% |
| CCOC(=O)[C@@]12C[C@@H]1[C@@H](n1ccc3c(NC)nc(I)nc31)[C@@H]1OC(C)(C)O[C@@H]12 [compound 73, Ethyl(3aR,3bS,4aS,5R,5aS)-5-(2-iodo-4-(methylamino)-7H-pyrrolo[2,3-d]pyrimidin-7-yl)-2,2-dimethyltetrahydrocyclopropa[3,4]cyclopenta[1,2-d][1,3]dioxole-3b(3aH)-carboxylate] |  |  | > 10000 nM | –39% |  |  |  |  | 276 ± 65 nM | 4050 ± 740 nM | > 10000 nM | 7600 nM | Ki (hSERT): 6580 nM; Ki (hA1AR): 1110 nM |
